Patent publication US20080004302A1, “Novel Compounds” (ASTRAZENECA AB, priority 2006, published 2008)
Counter-ions that a name gives are not always drawn.

What was measured:
FGFR1 IIIc [1] = target: T1, FGFR1 IIIc (Homo sapiens, UniProt P11362); assay: Cell based inhibition of transiently expressed FGFR1 IIIc phosphorylation (Cos-1 cells); details: Cos-1 cells, phospho-FGFR1; upper bound of bin; read-out: IC50
T1 construct: host or cells: Cos-1
Experimental: (§1) This assay is designed to detect inhibitors of transiently expressed FGFR1 phosphorylation by antibody staining of fixed cells detected using ArrayScan technology.
(§2) To undertake the assay, Cos-1 cells were harvested at 90-95% confluence for cell transfection. For each 96-well plate, 24 ul Lipofectamine 2000 was added to 809 ul OptiMEM and incubated at room temperature for 5 minutes. […] Equal volumes of DNA and Lipofectamine 2000 were combined (DNA: Lipid=1:1.2 ratio) and incubated at room temperature for 20 minutes.
The harvested Cos-1 cells are counted using a coulter counter and diluted further with 1% FCS/DMEM to 2.5×10^5 cells/ml. For each 96-well, 8.33 ml cells were required. […] Media was removed from the wells using vacuum aspiration; cells were fixed by adding 50μl of 100% methanol to each well and incubated at room temperature for 20 minutes.
(§3) The plates were read on an Arrayscan (Cellomics).

FGFR1 IIIc [2] = target: T1, FGFR1 IIIc; assay: Cell based inhibition of transiently expressed FGFR1 IIIc phosphorylation via use of ECHO technology (Cos-1 cells); details: Cos-1 cells, phospho-FGFR1, ECHO dosing; upper bound of bin; read-out: IC50
Experimental: as §1
as §2, with “24μl” for “24 ul”
The harvested Cos-1 cells are counted using a coulter counter and diluted further with 1% FCS/DMEM to 2.5×10^5 cells/ml. For each 96-well, 8.33 ml cells were required. […] 70 μl of media was aspirated from the assay plate using the Quadra before the plate was transferred onto the ECHO 550. […] Compound transfer to the assay plate on the ECHO 550 was at concentration ranges 1)10 μM, 2) 3 μM, 3) 1 μM, 4) 0.3 μM, 5) 0.1 μM, 6) […].
The plates were gently tapped to mix compound in with the cell media and left to incubate at 37° C. with 5% CO2 for 1 hour.
Media was removed from the wells using vacuum aspiration; cells were fixed by adding 50 μl of 100% methanol to each well and incubated at room temperature for 20 minutes.
as §3

FGFR1 kinase = FGFR1 kinase (Homo sapiens, UniProt P11362); assay: Kinase assay (using Caliper technology); assay type: biochemical; details: FGFR1 kinase, Caliper; upper bound of bin; read-out: IC50
Sequence of FGFR1 kinase (P11362 22-822): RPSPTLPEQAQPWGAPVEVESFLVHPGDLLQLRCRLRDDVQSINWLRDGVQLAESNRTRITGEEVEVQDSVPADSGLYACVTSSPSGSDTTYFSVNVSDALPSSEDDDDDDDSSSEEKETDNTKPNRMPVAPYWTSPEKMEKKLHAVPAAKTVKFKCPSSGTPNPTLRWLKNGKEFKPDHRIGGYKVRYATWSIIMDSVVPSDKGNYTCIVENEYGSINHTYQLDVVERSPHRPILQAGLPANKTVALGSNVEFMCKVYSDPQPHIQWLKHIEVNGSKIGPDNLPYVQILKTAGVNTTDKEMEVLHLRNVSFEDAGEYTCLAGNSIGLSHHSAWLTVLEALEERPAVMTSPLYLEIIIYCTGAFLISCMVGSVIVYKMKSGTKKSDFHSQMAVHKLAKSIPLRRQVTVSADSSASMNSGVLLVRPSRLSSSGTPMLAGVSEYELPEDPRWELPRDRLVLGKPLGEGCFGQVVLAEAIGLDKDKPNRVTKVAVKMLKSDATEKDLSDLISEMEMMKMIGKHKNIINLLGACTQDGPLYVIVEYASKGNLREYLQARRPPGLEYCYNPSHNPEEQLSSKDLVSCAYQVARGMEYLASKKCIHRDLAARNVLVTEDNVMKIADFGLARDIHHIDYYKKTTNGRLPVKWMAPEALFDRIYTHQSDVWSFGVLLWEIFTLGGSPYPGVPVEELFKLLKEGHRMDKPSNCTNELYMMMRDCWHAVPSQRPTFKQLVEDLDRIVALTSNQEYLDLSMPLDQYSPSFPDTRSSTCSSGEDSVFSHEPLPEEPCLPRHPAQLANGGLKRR
Experimental: To determine inhibition of FGFR activity, kinase assays were conducted using Caliper technology.
Kinase activity assays were performed in Greiner 384-well low volume plates, with a total reaction volume of 12ul per well. […] The substrate for each assay was a custom peptide with fluorescent tag (13 amino acids in length) the sequence of which was specific for FGFR1 kinase.
Compounds were serially diluted in 5% (v/v) DMSO, before being added to assay plates.
Assay plates were incubated at room temperature for 1.5 h, before the reaction was stopped with the addition of buffer [comprising: 100 mM HEPES—pH7.5, 0.033% Brij-35, 0.22% Caliper Coating Reagent #3, 88mM EDTA, 5% DMSO]. Stopped assay plates were then read using the Caliper LabChip® LC3000 (which uses microfludics to measure a shift in mobility between fluorescent labelled peptide and the FGFR1 kinase—phosphorylated form of this peptide).

human IGF1R = target: T2, human IGF1R (Homo sapiens, UniProt P08069); assay: Inhibition of insulin-like growth factor-1 receptor phosphorylation in R+ cells; assay type: cell-based; details: 30 nM IGF1, read-out: IGF cell class
T2 construct: expressed in transfected cells; host or cells: R+ cells (R- mouse fibroblasts transfected with human IGF1R)
T2 sequence (P08069 31-1367): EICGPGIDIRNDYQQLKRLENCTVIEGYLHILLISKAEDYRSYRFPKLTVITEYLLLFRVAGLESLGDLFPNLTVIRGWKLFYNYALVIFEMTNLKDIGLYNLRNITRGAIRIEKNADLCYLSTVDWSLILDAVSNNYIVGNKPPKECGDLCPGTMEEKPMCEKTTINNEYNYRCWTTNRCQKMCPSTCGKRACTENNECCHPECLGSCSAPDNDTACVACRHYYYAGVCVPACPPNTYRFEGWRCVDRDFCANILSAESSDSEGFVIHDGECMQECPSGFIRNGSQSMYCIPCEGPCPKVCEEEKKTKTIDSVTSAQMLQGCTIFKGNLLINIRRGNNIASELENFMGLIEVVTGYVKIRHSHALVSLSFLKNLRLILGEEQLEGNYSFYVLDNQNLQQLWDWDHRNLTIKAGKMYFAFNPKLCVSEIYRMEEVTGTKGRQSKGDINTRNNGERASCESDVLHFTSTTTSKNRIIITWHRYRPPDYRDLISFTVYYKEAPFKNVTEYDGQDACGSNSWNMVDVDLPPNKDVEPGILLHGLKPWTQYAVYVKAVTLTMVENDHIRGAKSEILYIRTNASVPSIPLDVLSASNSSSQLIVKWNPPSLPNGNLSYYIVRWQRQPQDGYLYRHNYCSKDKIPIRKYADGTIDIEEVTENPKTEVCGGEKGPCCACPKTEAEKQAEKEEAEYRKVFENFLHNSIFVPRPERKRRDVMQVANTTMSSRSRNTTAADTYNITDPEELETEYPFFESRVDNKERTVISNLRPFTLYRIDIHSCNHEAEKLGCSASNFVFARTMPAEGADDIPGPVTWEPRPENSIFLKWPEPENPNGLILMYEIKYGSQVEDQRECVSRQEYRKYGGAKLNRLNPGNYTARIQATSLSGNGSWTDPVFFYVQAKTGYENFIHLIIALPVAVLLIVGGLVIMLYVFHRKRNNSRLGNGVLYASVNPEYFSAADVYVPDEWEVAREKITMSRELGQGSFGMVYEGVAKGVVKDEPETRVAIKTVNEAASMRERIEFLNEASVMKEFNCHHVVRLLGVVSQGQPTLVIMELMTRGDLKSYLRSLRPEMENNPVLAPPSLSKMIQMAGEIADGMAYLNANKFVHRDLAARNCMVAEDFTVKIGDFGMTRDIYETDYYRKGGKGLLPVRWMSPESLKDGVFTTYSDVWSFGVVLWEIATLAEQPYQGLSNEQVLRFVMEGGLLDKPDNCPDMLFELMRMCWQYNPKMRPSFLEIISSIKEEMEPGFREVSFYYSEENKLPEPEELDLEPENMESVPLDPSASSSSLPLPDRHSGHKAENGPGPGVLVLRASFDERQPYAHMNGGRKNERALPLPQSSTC
Experimental: This immunofluorescence end point cell assay measures the ability of a test compound to reduce the measured levels of IGF1R phosphorylation after IGF1 stimulation in R^+ cells. […] were derived by transfection of R^− mouse fibroblast cells with human IGF1R.
(+5% CO2) incubator for 30 minutes.
Following the compound treatment, the R^+ cells were stimulated with a final concentration of 30 nM IGF1 (Gropep 1M001) for 20 minutes at 37° C. […] Plates were incubated for 1 hour at room temperature. […] Additionally, in-house antibodies raised against phospho […] were also used at a suitable titre determined for each batch.
The plates were incubated at room temperature for one hour. […] After addition of 100 μl/well PBS the plates were sealed with a black seal.
The Green Fluorescent phospho IGF1R -associated signal in each well was measured using an Acumen Explorer HTS Reader (TTP Labtech Ltd., Cambridge). […] The instrument is a laser-scanning fluorescence microplate cytometer, which samples the well at regular intervals and uses threshold algorithms to identify all fluorescent intensities above the solution background without the need to generate and analyse an image. These fluorescent objects can be quantified and provide a measure of the phospho IGF1R levels in cells. Fluorescence dose response data obtained with each compound was exported into a suitable software package (such as Origin) to perform curve fitting analysis. Phospho-IGF1R levels in response to compound treatment versus stimulated and unstimulated controls were expressed as an IC50 value.

Erk phosphorylation = assay: Growth factor (bFGF) stimulated Erk phosphorylation in NIH 3T3 cells; details: Mus musculus, NIH3T3, NIH 3T3 cells, 3 ng/ml bFGF
From the text: These and other assays were used to evaluate the ability of a test compound to inhibit growth factor stimulated cellular signalling in mammalian cell lines. This was achieved by measuring the amount of receptor tyrosine kinase regulated Erk phosphorylation within a cell following compound treatment.
NIH 3T3 (ECACC, 93061524) cells were routinely passaged in DMEM (Gibco BRL, 41966) plus 10% foetal calf serum (FCS), 1% L-glutamine (Gibco BRL, 25030) to a confluence not greater than 80%. To undertake the assay, NIH 3T3's were seeded at 1×10^4 cells/well in DMEM plus 10% foetal calf serum, 1% L-glutamine in 96 well plates (Costar, 3904) and incubated at 37° C. (+5% CO2) in a humidified incubator. Once the cells had fully adhered (typically following 4-5 hours incubation) the media was removed from each well and the cells gently washed with 100μl warm serum free media. 90μl of serum free DMEM plus 1% L-glutamine was then added to each well and the plates were returned to a humidified 37° C. (+5% CO2) incubator. The following day, the plates were dosed with 10[l compound (diluted from 10 mM stock in DMSO using serum free DMEM) and the plates were returned to a humidified 37° C. (+5% CO2) incubator for one hour. NIH 3T3 cells were then stimulated with a final concentration of 3 ng/ml bFGF (Sigma, F029 1) for 20 minutes at 37° C. Following stimulation the cells were fixed by adding formaldehyde (4% v/v final concentration) and incubating at room temperature for 20 minutes. The fixative solution was then removed and the wells were washed twice with 100μl phosphate buffered saline (PBS/A) before permeabilising the cells by the addition of 50 μl/well 0.1% triton/PBS/A for 10 minutes at room temperature. The permeabilisation solution was then removed and the cells washed twice more with 100 μl/well PBS/A before the addition of 50 μl/well anti-phospho p44/42 (Cell Signalling Technology, 9106), diluted 1/500 with PBS/A plus 10% FCS. The anti-phospho p44/42 antibody recognises Erk phosphorylated at threonine 202 and tyrosine 204. […] Finally, the plates were washed three times with 100 μl/well PBS/A, leaving the final wash in the wells before sealing the plates. The plates were read at 350 nm and 488 nm using an Arrayscan (Cellomics).

T1 sequence (P11362 22-822): as the sequence (P11362 22-822) above

Structure (SMILES)	IC50 (FGFR1 IIIc [1])	IC50 (FGFR1 IIIc [2])	IC50 (FGFR1 kinase)	IC50 (human IGF1R)	IC50 (Erk phosphorylation)	IC50 (Erk phosphorylation; upper bound of bin)
Cc1cc(CNc2nccc(Nc3cc(C4CCCC4)[nH]n3)n2)on1 [Example 13, N′-(5-cyclopentyl-2H-pyrazol-3-yl)-N-[(3-methyl-1,2-oxazol-5-yl)methyl]pyrimidine-2,4-diamine]	< 0.2 µM	< 1 µM	–	–	–	–
COc1cc(OC)cc(OCc2cc(Nc3ccnc(NCc4cc(C)no4)n3)n[nH]2)c1 [Example 44, N′-[5-[(3,5-Dimethoxyphenoxy)methyl]-2H-pyrazol-3-yl]-N-[(3-methyl1,2-oxazol-5-yl)methyl]pyrimidine-2,4-diamine]	–	< 1 µM	< 0.2 µM	> 10 µM	< 0.2 µM	–
COc1ccc(OC)c(CCc2cc(Nc3ccnc(NCc4cc(C)no4)n3)n[nH]2)c1 [Example 45, N′-[5-[2-(2,5-dimethoxyphenyl)ethyl]-2H-pyrazol-3-yl]-N-[(3-methyl1,2-oxazol-5-yl)methyl]pyrimidine-2,4-diamine]	< 10 µM	–	< 1 µM	–	–	–
COc1ncc(CCc2cc(Nc3ccnc(NCc4cc(C)no4)n3)n[nH]2)c(OC)n1 [Example 60, N′-[5-[2-(2,4-dimethoxypyrimidin-5-yl)ethyl]-1H-pyrazol-3-yl]-N-[(3-methyl-1,2-oxazol-5-yl)methyl]pyrimidine-2,4-diamine]	< 30 µM	–	< 1 µM	> 10 µM	–	–
COc1cccc(CCc2cc(Nc3ccnc(NCc4cc(CO)no4)n3)[nH]n2)c1 [Example 61, [5-[[[4-[[5-[2-(3-methoxyphenyl)ethyl]-2H-pyrazol-3-yl]amino]pyrimidin-2-yl]amino]methyl]-1,2-oxazol-3-yl]methanol]	< 1 µM	–	< 0.2 µM	> 10 µM	–	–
CNC(=O)c1cc(CNc2nccc(Nc3cc(OC(C)C)n[nH]3)n2)on1 [Example 79, N-methyl-5-[[[4-[(5-propan-2-yloxy-2H-pyrazol-3-yl)amino]pyrimidin-2-yl]amino]methyl]1,2-oxazole-3-carboxamide]	–	< 10 µM	< 0.2 µM	–	–	< 10 µM
CC(C)Oc1cc(Nc2ccnc(NCc3cc(-c4ncccn4)no3)n2)n[nH]1 [Example 82, N′-(5-propan-2-yloxy-2H-pyrazol-3-yl)-N-[(^3-pyrimidin-2-yl-1,2-oxazol-5-yl)methyl]pyrimidine-2,4-diamine]	–	< 1 µM	< 0.2 µM	–	–	< 1 µM
CC(C)Oc1cc(Nc2ccnc(NCc3cc(C4CCCO4)no3)n2)[nH]n1 (stereo not drawn) [Example 84, N-[[3-(oxolan-2-yl)1,2-oxazol-5-yl]methyl]-N′-(5-propan-2-yloxy-2H-pyrazol-3-yl)pyrimidine-2,4-diamine]	–	< 1 µM	< 0.2 µM	–	< 0.2 µM	–
Cc1cc(CNc2nccc(Nc3cc(OCc4cccc(C(=O)N5CCOCC5)c4)[nH]n3)n2)on1 [Example 90, [3-[[5-[[2-[(3-methyl1,2-oxazol-5-yl)methylamino]pyrimidin-4-yl]amino]-1H-pyrazol-3-yl]oxymethyl]phenyl]-morpholin-4-yl-methanone]	–	–	< 10 µM	> 10 µM	–	< 10 µM
Cc1cc(CNc2nccc(Nc3cc(OCc4cccc(C#N)c4)[nH]n3)n2)on1 [Example 92, 3-[[5-[[2-[(3-methyl1,2-oxazol-5-yl)methylamino]pyrimidin-4-yl]amino]-2H-pyrazol-3-yl]oxymethyl]benzonitrile hydrochloride]	–	–	< 10 µM	> 10 µM	–	< 1 µM
Cc1cc(CNc2nccc(Nc3cc(OCc4ccc(C(F)(F)F)cc4)[nH]n3)n2)on1 [Example 96, N-[(3-methyl1,2-oxazol-5-yl)methyl]-N′-[5-[[4-(trifluoromethyl)phenyl]methoxy]-1H-pyrazol-3-yl]pyrimidine-2,4-diamine hydrochloride]	–	–	< 10 µM	> 10 µM	–	< 10 µM
Cc1cc(CNc2nccc(Nc3cc(-c4cccs4)[nH]n3)n2)on1 [Example 104, N-[(3-methyl1,2-oxazol-5-yl)methyl]-N′-(5-thiophen-2-yl-1H-pyrazol-3-yl)pyrimidine-2,4-diamine]	–	–	< 1 µM	1 to 10 µM	–	< 1 µM
Cc1cc(CNc2nccc(Nc3cc(CCc4nc(-c5ccccc5)no4)[nH]n3)n2)on1 [Example 106, N-[(3-methyl1,2-oxazol-5-yl)methyl]-N′-[5-[2-(3-phenyl-1,2,4-oxadiazol-5-yl)ethyl]-2H-pyrazol-3-yl]pyrimidine-2,4-diamine]	–	–	< 1 µM	1 to 10 µM	–	< 1 µM
Cc1cc(CNc2nccc(Nc3cc(CCc4ccco4)[nH]n3)n2)on1 [Example 107, N′-[5-[2-(2-furyl)ethyl]-2H-pyrazol-3-yl]-N-[(3-methyl1,2-oxazol-5-yl)methyl]pyrimidine-2,4-diamine]	–	–	< 0.2 µM	> 10 µM	–	< 1 µM
Cc1cc(CNc2nccc(Nc3cc(C4CCOCC4)[nH]n3)n2)on1 [Example 114, N-[(3-methyl1,2-oxazol-5-yl)methyl]-N′-[5-(oxan-4-yl)-1H-pyrazol-3-yl]pyrimidine-2,4-diamine hydrochloride]	–	–	< 10 µM	> 10 µM	–	< 10 µM
Cc1cc(CNc2nccc(Nc3cc(CCc4cccnc4)[nH]n3)n2)on1 [Example 115, N-[(3-methyl1,2-oxazol-5-yl)methyl]-N′-[5-(2-pyridin-3-ylethyl)-2H-pyrazol-3-yl]pyrimidine-2,4-diamine]	–	–	< 1 µM	> 10 µM	–	< 10 µM
Cc1cc(CNc2nccc(Nc3cc(CCc4ccncc4)[nH]n3)n2)on1 [Example 116, N-[(3-methyl-1,2-oxazol-5-yl)methyl]-N′-[5-(2-pyridin-4-ylethyl)-2H-pyrazol-3-yl]pyrimidine-2,4-diamine]	< 30 µM	–	< 10 µM	> 10 µM	–	–
Cc1cc(CNc2nccc(Nc3cc(CCc4cn(C)cn4)[nH]n3)n2)on1 [Example 119, N′-[5-[2-(1-methylimidazol-4-yl)ethyl]-1H-pyrazol-3-yl]-N-[(3-methyl-1,2-oxazol-5-yl)methyl]pyrimidine-2,4-diamine]	< 30 µM	–	< 10 µM	–	–	–
Cc1cc(CNc2nccc(Nc3cc(CCc4ccc(CN(C)C)o4)[nH]n3)n2)on1 [Example 121, N′-[5-[2-[5-(dimethylaminomethyl)-2-furyl]ethyl]-1H-pyrazol-3-yl]-N-[(3-methyl-1,2-oxazol-5-yl)methyl]pyrimidine-2,4-diamine]	< 30 µM	–	< 1 µM	–	–	–
